According to US11555179B2, “Identification of subpopulations of cardiomyocytes” (The University of Hong Kong, priority 2019, dated 2023):

Tests used:
CD36^+ hESC-CMs = assay: Doxorubicin-induced cardiotoxicity (XTT viability, TMRE/MTG Δψm); assay type: cell-based, human; conditions: for effect on cell viability upon dox treatment (XTT): pre-treatment (NAC 1 mM, 1 hr), FIGS. 5I-K show mixed, CD36^+ and CD36^− hESC-CMs
Experimental: FIGS. 5A and 5B are bar graphs showing the normalized levels of cell viability (A) and mitochondrial membrane potential Δψm (B) of mixed (unsorted) hESC-CMs, CD36^+ hESC-CMs, and CD36^− hESC-CMs after exposure to doxorubicin (dox). The hESC-CMs were treated with 1 mM dox for 24 hrs. Cell viability and mitochondrial membrane potential Δψm were determined by the XTT and TMRE/MTG assays (n=9 and 7), respectively, and normalized to untreated hESC-CMs.
(C) and (D): viability and Δψm for unsorted hESC-CMs; (E) and (F): viability and Δψm for CD36^+ hESC-CMs; (G) and (H): viability and Δψm for CD36^− hESC-CMs. The cells in the “Dox” groups were treated with 1 mM dox for 24 hrs; the cells in the “Dox+DRZ” groups were pre-treated with […] DRZ for 1 hr, followed by co-treatment with 1 mM dox for 24 hrs. Cell viability and mitochondrial membrane potential Δψm were determined by the XTT and TMRE/MTG assays (n=7 and 9), respectively, and normalized to untreated hESC-CMs (i.e., the “Control” groups). *p<0.05, **p<0.01, ***p<0.001.
The cells in the “Dox” groups were treated with 1 mM dox for 24 hrs; the cells in the “Dox+NAC” groups were pre-treated with 1 mM NAC for 1 hr, followed by co-treatment with 1 mM dox for 24 hrs. Cell viability was determined by the XTT assay (n=4) and normalized to untreated cells (i.e., the “Control” groups).

[1] = in vivo; cited from earlier work
hPSC-CMs = conditions: unsorted hPSC-CMs as currently utilized; cited from earlier work
mouse models of DCT = conditions: in vivo; cited from earlier work
CD172A^+/CD36^− hESC-CMs [2] = assay: Mitochondrial membrane potential (TMRE) with oleic acid supplementation; assay type: cell-based, human; conditions: nutrient-deficient media lacking fatty acids, plus oleic acid, FIG. 3B
Experimental: (§1) FIG. 3A is a bar graph showing the uptake of fatty acid (FA) by C[…]^+/CD36^+ (black) and C[…]^+/CD36^- (white) hESC-CMs. The FA uptake assay was performed using a BODIPY-labeled C16 palmitate analog (n=6). FIG. 3B is a bar graph showing the relative levels of mitochondrial membrane potential Δψm in C[…]^+/CD36^+ and C[…]^+/CD36^- hESC-CMs cultured in the absence (black) and presence (gray) of oleic acid (n=5). […] In addition to enhanced mitochondrial output, adult CMs were characterized by their preference for fatty acid as fuel for energy production. In CMs, CD36 functions as a fatty acid translocase to facilitate the uptake of long-chain fatty acids such as palmitic and oleic acids, thus increased level of this protein is expected to enhance fatty acid entry into cells. […] Additional experiments were performed to test whether increased fatty acid uptake led to increased metabolic output. When cultured in nutrient-deficient media lacking fatty acids, C[…]^+/CD36^+ and C[…]^+/CD36^- CMs had similar Δψm.

CD172A^+/CD36^+ hESC-CMs [3] = assay: as above; assay type: cell-based, human; conditions: nutrient-deficient media lacking fatty acids, plus oleic acid, FIG. 3B
Experimental: as §1

[4] = doses exceeding 550 mg/m^2; cited from earlier work
[5] = system: CD172A^+/CD36^+/− hESC-CMs; conditions: 100 μM hydrogen peroxide for 30 min
Experimental: (§2) FIGS. 4A-4D are bar graphs showing the relative levels of mitochondrial superoxide (A), mitochondrial membrane potential Δψm (B), nuclear condensation (C), and cell viability (D) in CD172A^+/CD36^+/−, CD172A^+/CD36^+, and CD172A^+/CD36^− hECS-CMs after exposure to 100 μM hydrogen peroxide for 30 min. The relative levels of mitochondrial superoxide, mitochondrial membrane potential, nuclear condensation, and cell viability were determined using the MitoSOX™ red dye (n=5), TMRE staining (n=5, calibrated by mitochondrial mass based on the result of MTG staining), Hoechst staining (n=5), and PrestoBlue® staining (n=9), respectively. *p<0.05, **p<0.01, ***p<0.001.
(§3) The responses of mitochondrial function to oxidative stress were examined in subpopulations of hESC-CMs.

CD172A^+/CD36^− hESC-CMs [6] = conditions: 100 μM hydrogen peroxide for 30 min
Experimental: as §2, §3

CD172A^+/CD36^+ hESC-CMs [7] = conditions: 100 μM hydrogen peroxide for 30 min
Experimental: as §2, §3

[8] = dexrazoxane-treated pediatric patients, two randomized studies; cited from earlier work
[9] = then co-treatment with 1 mM dox 24 hrs

## vitamin E
CD36^+ hESC-CMs; [9]
  effect on cell viability upon dox treatment (XTT): did not increase cell viability

## CC(=O)N[C@@H](CS)C(=O)O [N-acetylcysteine]
[1]
  outcome in clinical trials (DCT): unsuccessful
hPSC-CMs
  protection of hPSC-CMs against DCT: rescued
CD36^+ hESC-CMs; [9]
  effect on cell viability upon dox treatment (XTT): did not increase cell viability
Mouse models of DCT
  efficacy in mouse models of DCT: effective

## CCCCCCCC/C=C\CCCCCCCC(=O)O [oleic acid]
CD172A^+/CD36^− hESC-CMs [2]
  increase in magnitude of Δψm on supplementation with oleic acid: 22.9%
CD172A^+/CD36^+ hESC-CMs [3]
  increase in magnitude of Δψm on supplementation with oleic acid: 43.0%

## COc1cccc2c1C(=O)c1c(O)c3c(c(O)c1C2=O)C[C@@](O)(C(=O)CO)C[C@@H]3O[C@H]1C[C@H](N)[C@H](O)[C@H](C)O1 [dox, Doxorubicin]
CD36^+ hESC-CMs; 1 mM dox for 24 hrs, CD36^+ hESC-CMs compared to mixed (unsorted) or CD36^− CMs, FIG. 5A
  cell viability upon dox treatment (XTT): more severe decrease
CD36^+ hESC-CMs; 1 mM dox for 24 hrs, CD36^+ hESC-CMs compared to mixed (unsorted) or CD36^− CMs, FIG. 5B
  mitochondrial membrane potential (Δψm) upon dox treatment (TMRE/MTG): more severe decrease
CD36^+ hESC-CMs; CD36^+ hESC-CMs compared to mixed (unsorted) or CD36^− CMs
  onset of dox-induced cell degeneration: accelerated onset
[4]
  incidence of congestive heart failure: exceeds 30%

## OO [hydrogen peroxide]
[5]; FIG. 4A
  mitochondrial superoxide (MitoSOX red dye): 2.2±0.4 fold
[5]; FIG. 4B
  relative mitochondrial membrane potential Δψm (TMRE, calibrated by MTG): 0.30±0.03
[5]; FIG. 4C
  nuclear condensation (Hoechst staining): 46±15%
CD172A^+/CD36^− hESC-CMs [6]; FIG. 4A
  mitochondrial superoxide (MitoSOX red dye): 1.7±1.2 fold
CD172A^+/CD36^− hESC-CMs [6]; FIG. 4B
  relative mitochondrial membrane potential Δψm (TMRE, calibrated by MTG): 0.35±0.04
CD172A^+/CD36^− hESC-CMs [6]; FIG. 4C
  nuclear condensation (Hoechst staining): 32%±11
CD172A^+/CD36^+ hESC-CMs [7]; FIG. 4A
  mitochondrial superoxide (MitoSOX red dye): 3.5±0.3 fold
CD172A^+/CD36^+ hESC-CMs [7]; FIG. 4B
  relative mitochondrial membrane potential Δψm (TMRE, calibrated by MTG): 0.17±0.03
CD172A^+/CD36^+ hESC-CMs [7]; FIG. 4C
  nuclear condensation (Hoechst staining): 73±8%

## C[C@@H](CN1CC(=O)NC(=O)C1)N1CC(=O)NC(=O)C1 [dexrazoxane]
hPSC-CMs
  protection of hPSC-CMs against DCT: failed to protect
CD36^+ hESC-CMs; 200 mM DRZ pre-treatment 1 hr, then co-treatment with 1 mM dox 24 hrs, CD36^+ hESC-CMs, FIGS. 5E, 5F
  protective effect against DCT (viability and Δψm): responded to the protective effect
[8]
  incidence of second primary malignancies (myelodysplastic syndrome and acute myeloid leukemia): threefold increase
